Measured values reported in the supplement of paper PMC11061612.

Columns and labels:
Experiment in all cases: combination Emax (second highest fraction inhibited in the dose matrix, 72 h); higher = more inhibition; extreme values may be limits of the assay
[1] = system: NCI-H524 (Small Cell Lung Carcinoma)
Summary of the method: (§1)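 Cell lines grown in DMEM/F12 or RPMI with 10% FBS were plated in 1536-well plates and held 24 hours at 37°C, 5% CO2 before 72 hours of exposure to two-drug dose matrices, with DMSO typically at 0.2%. CellTiter-Glo 2.0 luminescence gave viability, which was converted to inhibition. Vehicle wells were set to 0 and blank wells to 1. Combination Emax is the second-highest inhibition in the matrix, and Bliss excess is the observed combination effect minus the expected EA + EB − EA·EB, where EA and EB are the single-agent effects.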

[2] = system: LNZTA3WT4 (Low Grade Glioma)
Summary of the method: as §1

[3] = system: BE-13 (T-Lymphoblastic Leukemia)
Summary of the method: as §1

[4] = system: OV-56 (Ovarian Carcinoma)
Summary of the method: as §1

[5] = system: NCI-H2722 (Mesothelioma)
Summary of the method: as §1

[6] = system: NCI-H1568 (Lung Adenocarcinoma)
Summary of the method: as §1

[7] = system: LOXIMVI (Melanoma)
Summary of the method: as §1

[8] = system: WSU-NHL (B-Cell Non-Hodgkin's Lymphoma)
Summary of the method: as §1

[9] = system: SW1710 (Bladder Carcinoma)
Summary of the method: as §1

[10] = system: SNU-16 (Gastric Carcinoma)
Summary of the method: as §1

[11] = system: SNU-449 (Hepatocellular Carcinoma)
Summary of the method: as §1

[12] = system: A673 (Ewing's Sarcoma)
Summary of the method: as §1

[13] = system: OVCAR-5 (Ovarian Carcinoma)
Summary of the method: as §1

[14] = system: ESS-1 (Other Solid Carcinomas)
Summary of the method: as §1

[15] = system: TGBC1TKB (Biliary Tract Carcinoma)
Summary of the method: as §1

[16] = system: NCI-H2052 (Mesothelioma)
Summary of the method: as §1

[17] = system: ALL-PO (B-Lymphoblastic Leukemia)
Summary of the method: as §1

[18] = system: YAPC (Pancreatic Carcinoma)
Summary of the method: as §1

[19] = system: HuCCT1 (Biliary Tract Carcinoma)
Summary of the method: as §1

[20] = system: HuH-7 (Hepatocellular Carcinoma)
Summary of the method: as §1

| Compound | combination Emax [1] | combination Emax [2] | combination Emax [3] | combination Emax [4] | combination Emax [5] | combination Emax [6] | combination Emax [7] | combination Emax [8] | combination Emax [9] | combination Emax [10] | combination Emax [11] | combination Emax [12] | combination Emax [13] | combination Emax [14] | combination Emax [15] | combination Emax [16] | combination Emax [17] | combination Emax [18] | combination Emax [19] | combination Emax [20] |
| --- | --- | --- | --- | --- | --- | --- | --- | --- | --- | --- | --- | --- | --- | --- | --- | --- | --- | --- | --- | --- |
| CC1(C)CCC(CN2CCN(c3ccc(C(=O)NS(=O)(=O)c4ccc(NCC5CCOCC5)c([N+](=O)[O-])c4)c(Oc4cnc5[nH]ccc5c4)c3)CC2)=C(c2ccc(Cl)cc2)C1 [Venetoclax] + CCN(CCO)CCCOc1ccc2c(Nc3cc(CC(=O)Nc4cccc(F)c4)[nH]n3)ncnc2c1 [AZD2811] (first compound max 1 µM, 7x7, partner max 1 µM) | 0.985 | 0.487 | 0.881 | 0.195 | 0.23 | 0.209 | 0.21 | 0.782 | 0.248 | 0.523 | 0.239 | 0.861 | 0.315 | 0.977 | 0.208 | 0.181 | 1 | 0.157 | 0.217 | 0.194 |
| CC1(C)CCC(CN2CCN(c3ccc(C(=O)NS(=O)(=O)c4ccc(NCC5CCOCC5)c([N+](=O)[O-])c4)c(Oc4cnc5[nH]ccc5c4)c3)CC2)=C(c2ccc(Cl)cc2)C1 [Venetoclax] + Cn1cnc2c(F)c(Nc3ccc(Br)cc3Cl)c(C(=O)NOCCO)cc21 [Selumetinib] (first compound max 1 µM, 7x7, partner max 3 µM) | 0.113 | 0.308 | 0.461 | 0.108 | 0.14 | 0.0499 | 0.571 | 0.745 | 0.216 | 0.241 | 0.109 | 0.65 | 0.572 | 0.864 | 0.167 | 0.213 | 0.538 | 0.145 | 0.38 | 0.122 |
| Cc1c2c(nn1C)CSCc1cc(n(C)n1)CSc1cc(c3ccccc3c1)OCCCc1c(C(=O)O)n(C)c3c-2c(Cl)ccc13 [AZD5991] + CCN(CCO)CCCOc1ccc2c(Nc3cc(CC(=O)Nc4cccc(F)c4)[nH]n3)ncnc2c1 [AZD2811] (first compound max 1 µM, 7x7, partner max 1 µM) | 1 | 0.256 | 0.929 | 0.2 | 0.29 | 0.306 | 0.339 | 0.92 | 0.228 | 0.996 | 0.282 | 0.946 | 0.205 | 0.733 | 0.192 | 0.265 | 1 | 0.238 | 0.267 | 0.219 |
| COc1nnc2ccc(N3CCC(c4ccc(OCCN5CCN(C)C(=O)[C@H]5C)cc4)CC3)nn12 [AZD5153] + C[C@@H]1COCCN1C2=NC(=NC(=C2)C3(CC3)[S@](=N)(=O)C)C4=C5C=CNC5=NC=C4 [AZD6738] (first compound max 1 µM, 7x7, partner max 10 µM) | 0.915 | 0.809 | 0.985 | 0.793 | 0.589 | 0.476 | 0.97 | 0.99 | 0.396 | 0.98 | 0.166 | 0.84 | 0.744 | 0.949 | 0.508 | 0.209 | 0.987 | 0.529 | 0.666 | 0.724 |
| Cc1c2c(nn1C)CSCc1cc(n(C)n1)CSc1cc(c3ccccc3c1)OCCCc1c(C(=O)O)n(C)c3c-2c(Cl)ccc13 [AZD5991] + Cc1cc2ncnn2cc1Nc1ncc2c(n1)n(C1CCOCC1)c(=O)n2C [AZD7648] (first compound max 1 µM, 7x7, partner max 10 µM) | 0.501 | 0.318 | 0.406 | 0.189 | 0.234 | 0.232 | 0.467 | 0.952 | 0.177 | 0.999 | 0.238 | 0.471 | 0.256 | 0.407 | 0.319 | 0.394 | 1 | 0.248 | 0.406 | 0.185 |
| Cn1cnc2c(F)c(Nc3ccc(Br)cc3Cl)c(C(=O)NOCCO)cc21 [Selumetinib] + CC(C)n1c(=O)n(C)c2cnc3cc(F)c(-c4ccc(OCCCN5CCCCC5)nc4)cc3c21 [AZD1390] (first compound max 10 µM, 7x7, partner max 0.3 µM) | 0.0936 | 0.226 | 0.179 | 0.133 | 0.0639 | 0.142 | 0.658 | 0.205 | 0.196 | 0.36 | 0.16 | 0.185 | 0.563 | 0.246 | 0.152 | 0.193 | 0.301 | 0.193 | 0.517 | 0.275 |
| COc1nnc2ccc(N3CCC(c4ccc(OCCN5CCN(C)C(=O)[C@H]5C)cc4)CC3)nn12 [AZD5153] + Cn1cnc2c(F)c(Nc3ccc(Br)cc3Cl)c(C(=O)NOCCO)cc21 [Selumetinib] (first compound max 1 µM, 7x7, partner max 10 µM) | 0.575 | 0.383 | 0.672 | 0.336 | 0.516 | 0.413 | 0.877 | 0.954 | 0.441 | 0.902 | 0.243 | 0.604 | 0.685 | 0.585 | 0.37 | 0.403 | 0.88 | 0.477 | 0.826 | 0.885 |
| CN(C)CCCOc1ccc(-c2ccc3ncc4c(c3c2)n(C2CCOCC2)c(=O)n4C)cn1 [AZD0156] + C=CCn1c(=O)c2cnc(Nc3ccc(N4CCN(C)CC4)cc3)nc2n1-c1cccc(C(C)(C)O)n1 [AZD1775] (first compound max 1 µM, partner max 1 µM) | 0.792 | 0.783 | 0.964 | 0.19 | 0.268 | 0.419 | 0.753 | 0.948 | 0.337 | 0.919 | 0.142 | 0.564 | 0.347 | 0.973 | 0.134 | 0.376 | 0.959 | 0.251 | 0.717 | 0.262 |
| COc1cccc(OCCCN)c1-c1cc(Nc2cnc(C#N)cn2)n[nH]1 [Prexasertib] + C=CCn1c(=O)c2cnc(Nc3ccc(N4CCN(C)CC4)cc3)nc2n1-c1cccc(C(C)(C)O)n1 [AZD1775] (first compound max 1 µM, partner max 1 µM) | 1 | 0.91 | 1 | 0.921 | 0.308 | 0.563 | 0.859 | 1 | 0.823 | 1 | 0.439 | 0.946 | 0.838 | 1 | 0.446 | 0.699 | 0.989 | 0.669 | 0.827 | 0.438 |
| NC1(C(=O)N[C@@H](CCO)c2ccc(Cl)cc2)CCN(c2ncnc3[nH]ccc23)CC1 [Capivasertib] + CCN(CCO)CCCOc1ccc2c(Nc3cc(CC(=O)Nc4cccc(F)c4)[nH]n3)ncnc2c1 [AZD2811] (first compound max 10 µM, 7x7, partner max 1 µM) | 0.992 | 0.475 | 0.733 | 0.249 | 0.515 | 0.22 | 0.517 | 0.966 | 0.36 | 0.663 | 0.187 | 0.703 | 0.401 | 0.812 | 0.298 | 0.427 | 1 | 0.233 | 0.309 | 0.225 |
